Measured values taken from US5034548A, “Steroid derivatives useful as hypocholesterolemics” (E. I. Du Pont de Nemours and Company, priority 1990, dated 1991).

Assays:
[1] = biological target: T1, Lanosta-8,24-dien-3β-ol 14α-methyl demethylase (Rattus norvegicus, UniProt Q64654); assay: Lanosta-8,24-dien-3β-ol 14α-Methyl Demethylase Inhibition Assay; format: biochemical; settings: rat hepatic microsomal preparations, 100 μM lanost-8-en-3β-ol substrate, pH not given; test compounds 0 to 100 μM
T1 construct: determined in rat depatic microsomal preparations; from tissue; host or cells: rat hepatic microsomes
T1 sequence (Q64654 1-503): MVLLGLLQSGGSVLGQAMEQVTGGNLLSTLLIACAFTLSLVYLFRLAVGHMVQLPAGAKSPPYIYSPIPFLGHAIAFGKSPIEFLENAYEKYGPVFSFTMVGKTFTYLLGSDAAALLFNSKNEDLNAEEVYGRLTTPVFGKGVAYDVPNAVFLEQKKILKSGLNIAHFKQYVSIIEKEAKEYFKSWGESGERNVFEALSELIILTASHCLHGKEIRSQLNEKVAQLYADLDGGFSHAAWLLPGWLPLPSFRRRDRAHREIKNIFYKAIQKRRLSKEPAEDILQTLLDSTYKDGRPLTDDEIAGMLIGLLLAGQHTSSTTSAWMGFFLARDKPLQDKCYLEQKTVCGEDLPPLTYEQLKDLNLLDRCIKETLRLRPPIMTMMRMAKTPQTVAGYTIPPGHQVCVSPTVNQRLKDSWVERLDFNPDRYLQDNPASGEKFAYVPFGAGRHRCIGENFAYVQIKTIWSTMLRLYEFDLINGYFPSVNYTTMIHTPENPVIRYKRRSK
Experimental: Lanosta-8,24-dien-3β-ol 14α-methyl demethylase activity was determined in rat depatic microsomal preparations as described in Trzaskos et al., J. Biol. Chem., 261, 16937-16942 (1986). Specifically, test compounds were added to assay mixtures as detergent suspensions with substrate employing 5 mg Triton WR-1339, 100 μM lanost-8-en-3β-ol substrate, and test compounds ranging from 0 to 100 μM. The inhibitor/substrate/detergent suspension was incubated with 2 mg microsomal protein for 5 min at 37° followed by a 10 min incubation initiated by the addition of cofactors required for the reaction. […] Inhibition values are expressed as the amount of compound required to inhibit lanosta-8,24-dien-3β-ol 14α-methyldemethylase activity by 50% relative to that of the controls.

[2] = system: cholesterol synthesis in CHO cells; assay: De novo cholesterol synthesis: incorporation of radiolabeled acetate into cholesterol in CHO cells; format: cell-based, Chinese Hamster; settings: for Cholesterol Synthesis (DPMs): 17 hr + 2 hr with [14C]-acetic acid, Control 38855
Experimental: The ability of the compounds of Formula I to decrease de novo cholesterol synthesis was tested by measuring the incorporation of radiolabeled acetate into cholesterol synthesized in CHO cells. To conduct this experiment, CHO cells were plated at 0.3×10^6 cells per 15×60 mm tissue culture dish in 5 mL of McCoy's modified medium (Gibco Laboratories) containing 1% Cab-O-Sil delipidated FBS and incubated for 48 hours at 37° in a 5% CO2, 95% air environment. Test compounds in a 2.5% suspension of BSA (fatty acid free) in ethanol were then added to the cultures such that the final ethanol and BSA concentrations were 0.5% and […], respectively. Control cultures received ethanol and BSA alone. The cultures containing test compounds were then incubated at 37° in a 5% Co, 95% air environment for 17 hr before the addition of [1,2-^14 C]-acetic acid (57 μCi/mmol); obtained from New England Nuclear, Boston, Mass.) at a concentration of 10 μCi/mL for 2 additional hr.
The cells were harvested by washing the cells twice with 5 mL of cold PBS and scraping the cells into 1 mL PBS. The cell-containing solution was then transferred to 15 mL extraction tubes and treated with 1 mL of 90% methanol (containing 15% KOH, 100 μg/mL butylated hydroxytoluene). All samples were saponified for 1 hr at 80° and the non-saponifiable lipids then extracted with petroleum ether. The petroleum ether fractions were dried under nitrogen, resuspended in ethanol, counted and analyzed by reverse phase HPLC at 45° using an Ultrashpere Octyl column (from Altex Scientific Inc., Berkeley, Calif.) with a mobile phase of acetonitrile:methanol:water (44:44:12). The amount of cholesterol synthesis is measured by the amount of radiolabeled acetate incorporated into the cholesterol peak. The percent of cholesterol synthesis in the treated culture is calculated based upon the control culture.

[3] = system: 3-Hydroxy-3-Methylglutaryl Coenzyme A Reductase (HMGR); assay: HMGR Suppression Assay in digitonin-permeabilized CHO cells; format: cell-based, Chinese Hamster; settings: 6 hr incubation at 37°, amount to suppress HMGR activity by 50% relative to controls
Experimental: The ability of the compounds of Formula I to suppress the activity of HMGR, the rate limiting enzyme of cholesterol biosynthesis, was tested as follows. Chinese Hamster Ovary (CHO) cells were divided twice weekly and were maintained in McCoy's 5A medium supplemented with 1% Cab-O-Sil delipidated Fetal Bovine Serum (FBS) (obtained from Gibco Laboratories, Chagrin Falls, Ohio). Cells were harvested during the logarithmic phase of growth and cell cultures were prepared by adding 0.5×10^6 cells to wash well in a 24 well cluster dish (obtained from Costar, Data Packaging Corp., Cambridge, Mass.) employing 1 mL of the above medium per each well. […] Control cells were treated in an identical fashion to those which received test compound, except they were incubated with the BSA and ethanol suspension only.
Specifically, the medium in each well was aspirated and the cells rinsed with a 50 mM solution of phosphate buffered saline (PBS). One mL of 30 μg/mL of digitonin in CSK buffer (prepared using 10 mM Pipes [piperazine-N,N'-bis(2-ethansulfonic)acid'], 100 mM KCl, 2.5 mM MgCl2, 300 mM sucrose, 1 mM EGTA, pH 6.8) was added to each well and incubated for 10 min at 22° to permeabilize the cells. The buffer was carefully aspirated and the wells were rinsed twice each time with 1 mL of PBS. HMGR activity was measured directly by adding 75 μL of PIB buffer (50 mM potassium phosphate, 1 mM Na2 EDTA, 10 mM dithiothreitol, pH 7.4) to each well and incubating the cells for 30 minutes at 37° as described above. […] HMG-Coenzyme A (15 DPM/pmol), pH 7.4. The assay mixture was incubated for 30 min at 37° and terminated by the addition of 70 μL of [^3 H]-mevalonic acid (35,000 DPM/assay), 0.15 mg/mL in 3 N HCl. The reaction was left to lactonize for an additional 30 min at 37° or overnight at room temperature.
Reaction products were separated by thin layer chromatography on silica gel G (obtained from Analtech, Newark, Del.) developed in an unsaturated environment with acetone:benzene (3:2, v:v). The band corresponding to mevalonolactone was identified by exposure to iodine vapor and was scraped into counting vials. The extent of conversion of starting substrate, HMG-CoA, to mevalonic acid was determined by liquid scintillation counting in Biofluor (obtained from New England Nuclear, Boston, Mass). Corrections for recovery and blank values were made for each sample. Protein determinations were made by the Bio-rad (Bio-Rad, Richmond, Cal.) dye binding assay according to the manufacturer's instruction using bovine serum albumin as standard. Cellular protein was solubilized from culture dishes by the addition of 20 μL of 16 N KOH and assayed directly for protein amount. Suppression values are expressed as the amount of compound required to suppress HMGR activity by 50% relative to that of the controls.

[4] = Lowering blood (plasma) cholesterol levels in hamsters; format: in vivo, Male Golden Syrian hamsters; settings: 0.2% (w/w) in diet, 7 days, N = 16, means±SEM
Experimental: Male Golden Syrian hamsters (50-60 grams) were obtained from Charles River, Inc. (Wilmington, Mass.). Animals were housed in individual suspension cages and were maintained on a light cycle consisting of 12 hours of light followed by 12 hours of dark. Animals were allowed free access to water and feed (Agway ground chow, RMH 3200, Agway, Syracuse, N.Y.) containing 1% (w/w) corn oil) for a minimum of 4 weeks. Following this stabilization period a sample of blood was collected by orbital sinus bleeding under light ether anesthesia into heparinized capillary tubes. Plasma was separated by centrifugation (600×g for 10 minutes) and plasma cholesterols were determined by an autoanalyzer (Centrifichem 600, Baker Instruments, Allentown, Pa.). Based upon measured plasma cholesterol values, the animals were randomized into two groups such that the mean plasma cholesterol values were identical for both groups.
Animals in the two groups were then placed on one of two diets: (1) Diet A, consisting of ground chow plus 1% (w/w) corn oil, as described above; or (2) Diet B, consisting of Diet A plus 0.2% (w/w) of a test compound. Animals on Diet B, the treated animals, were allowed free access to feed and water, while animals on Diet A were pair-matched with Diet B animals and served as pair-fed controls. […] Total plasma cholesterol levels were determined as described above. […]

Compound | IC50 [1] [nM] | Cholesterol Synthesis (DPMs) ([2]; 0.5 μM) | activity at 0.5 µM ([2]; Cricetulus griseus, 19 h, 0.5 μM, percent of control culture (100)) [%] | IC50 [3] [nM] | Plasma Cholesterol, Treated ([4]; pair-fed control 136.0 ± 4.8) [mg/dL] | Cholesterol Synthesis (DPMs) ([2]; 1 μM) | activity at 1 µM ([2]; Cricetulus griseus, 19 h, 1 μM, percent of control culture (100)) [%] | Plasma Cholesterol, Treated ([4]; pair-fed control 136.0 ± 3.5) [mg/dL]
CC(C)CCC[C@@H](C)[C@H]1CC(=NO)[C@@]2(C)C3=CC[C@H]4C(C)(C)[C@@H](O)CC[C@]4(C)[C@H]3CC[C@]12C [Compound 31b, 3β-hydroxy-lanost-7-en-15-oxime] | 55000 | 24064 | 62 | 200 | 69.6 ± 2.6 | – | – | –
CC(C)CCC[C@@H](C)[C@H]1C[C@H](O)[C@@]2(O)C3=C(CC[C@]12C)[C@@]1(C)CC[C@H](O)C(C)(C)[C@@H]1CC3 [Compound 34a, 4,4-dimethyl-5α-cholest-8-en-3β,14α,15α-triol] | 3000 | – | – | 500 | – | 16521 | 43 | 119.3 ± 2.3
